# Target: T1, CDK7/cyclin H/MNAT1 (Homo sapiens, UniProt P50613)
# T1 construct: purchased Thermo Fisher Scientific (Life Technologies) SelectScreen
# Test: SelectScreen Adapta
# Assay type: biochemical
# Method: The in vitro kinase selectivity of NU5455 was determined using the SelectScreen Broad Assay Panel (Thermo Fisher Scientific) involving activity and binding assays (Supplemental Table 1). […] Class IA PI3Ks were measured using the p85α subunit.
# Kinase [ATP] % Assay Kinase [ATP] % Assay Kinase [ATP] % Assay Kinase [ATP] % Assay
# DNA-PK Km app 98.3 Z LATS2 n/a 4.7 L KIT D820E n/a 1.3 L GSK3B (GSK3 beta) Km app -2.5 Z
# PIK3C3 (hVPS34) Km app 85.9 A PRKCZ (PKC zeta) Km app 4.7 Z GRK1 n/a 1.3 L BMPR2 n/a -2.5 L
# PIK3C2B (PI3K-C2 beta) 10 28.9 A FGFR1 Km app 4.7 Z BRSK2 n/a 1.2 L CDC42 BPB (MRCKB) Km app -2.5 Z
# SNF1LK2 Km app 26.6 Z MINK1 Km app 4.6 Z NUAK1 (ARK5) Km app 1.2 A AMPK (A2/B2/G2) n/a -2.6 L
# HCK Km app 18.0 Z CSF1R (FMS) Km app 4.3 Z CDK9/cyclin K n/a 1.0 L PRKG1 Km app -2.7 Z
# NEK2 Km app 17.8 Z CSNK1G3 (CK1 gamma 3) Km app 4.2 Z NUAK2 n/a 1.0 L KIT T670E n/a -2.8 L
# ALK Km app 17.3 Z STK32C (YANK3) n/a 4.2 L CDK2/cyclin O n/a 0.9 L ERBB4 (HER4) Km app -2.8 Z
# FGFR3 K650M n/a 16.5 L STK22D (TSSK1) Km app 4.2 Z CAMKK2 (CaMKK beta) n/a 0.9 L PLK4 n/a -2.8 L
# SIK3 n/a 16.1 L TAOK3 (JIK) n/a 4.2 L FGFR3 Km app 0.9 Z GRK7 Km app -3.0 Z
# LYN A Km app 15.2 Z RPS6KA4 (MSK2) Km app 4.2 Z ULK2 n/a 0.9 L MAPKAPK2 Km app -3.1 Z
# BMPR1B (ALK6) n/a 14.5 L PTK2B (FAK2) Km app 4.2 Z KIT D816V n/a 0.9 L FGFR4 Km app -3.1 Z
# INSRR (IRR) Km app 14.1 Z CLK2 Km app 4.1 Z CAMK1 (CaMK1) 10 0.8 A CASK n/a -3.1 L
# PLK2 Km app 14.1 Z STK24 (MST3) Km app 4.1 Z PTK6 (Brk) Km app 0.7 Z GRK5 Km app -3.2 Z
# PRKACA (PKA) Km app 14.0 Z CAMK1D (CaMKI delta) Km app 4.1 Z CAMK2B (CaMKII beta) Km app 0.7 Z EGFR (ErbB1) T790M Km app -3.3 Z
# EIF2AK2 (PKR) n/a 13.3 L INSR Km app 4.1 Z ACVR1 (ALK2) n/a 0.7 L PAK4 Km app -3.3 Z
# PRKX Km app 12.5 Z IRAK1 Km app 4.0 A ABL1 H396P n/a 0.6 L DAPK3 (ZIPK) Km app -3.4 Z
# FGR Km app 12.1 Z SRC N1 Km app 3.9 Z MERTK (cMER) A708S n/a 0.6 L RET M918T n/a -3.5 L
# CLK1 Km app 11.7 Z SRPK2 Km app 3.9 Z MAPKAPK5 (PRAK) Km app 0.6 Z PRKCQ (PKC theta) Km app -3.7 Z
# MARK3 Km app 11.4 Z RPS6KA6 (RSK4) Km app 3.8 Z AKT1 (PKB alpha) Km app 0.5 Z CAMKK1 (CAMKKA) n/a -3.8 L
# PDGFRB (PDGFR beta) Km app 11.0 Z GRK6 Km app 3.7 Z NTRK3 (TRKC) Km app 0.4 Z FLT3 D835Y Km app -3.9 Z
# PRKCN (PKD3) Km app 10.7 Z PKN1 (PRK1) Km app 3.6 Z ZAP70 Km app 0.3 Z ROCK2 Km app -4.1 Z
# STK16 (PKL12) n/a 10.5 L MAP3K8 (COT) 100 3.5 Z CSNK1A1 (CK1 alpha 1) Km app 0.3 Z CHUK (IKK alpha) Km app -4.2 A
# FES (FPS) Km app 10.4 Z FLT4 (VEGFR3) Km app 3.5 Z MYLK (MLCK) n/a 0.2 L AXL Km app -4.2 Z
# ABL1 Km app 10.4 Z GRK4 Km app 3.5 Z MKNK2 (MNK2) n/a 0.2 L PIM2 Km app -4.3 Z
# MUSK Km app 10.3 Z FRK (PTK5) Km app 3.4 Z AMPK (A1/B1/G3) n/a 0.2 L PAK1 Km app -4.4 Z
# MAPK1 (ERK2) Km app 10.1 Z FYN A n/a 3.3 L MAP3K2 (MEKK2) n/a 0.1 L BMPR1A (ALK3) n/a -4.4 L
# BRAF 100 9.9 Z CDK1/cyclin A2 n/a 3.3 L CDK8/cyclin C n/a 0.1 L STK4 (MST1) Km app -4.4 Z
# IGF1R Km app 9.7 Z KIT V559D T670I n/a 3.1 L MARK2 Km app 0.1 Z PRKCH (PKC eta) Km app -4.6 Z
# MAPK14 (p38 alpha) Km app 9.7 Z SPHK2 10 3.1 A ICK n/a 0.0 L SGKL (SGK3) Km app -4.6 Z
# LCK Km app 9.6 Z FGFR3 G697C n/a 3.1 L FGFR2 Km app 0.0 Z PI4KB (PI4K beta) Km app -4.7 A
# MAPK11 (p38 beta) Km app 9.5 Z RIPK2 n/a 3.1 L AKT2 (PKB beta) Km app 0.0 Z PRKCE (PKC epsilon) Km app -4.9 Z
# SRC Km app 9.5 Z PAK6 Km app 3.0 Z EPHB2 Km app -0.1 Z PHKG1 Km app -5.0 Z
# CHEK1 (CHK1) Km app 9.3 Z LYN B Km app 3.0 Z TGFBR2 n/a -0.1 L PDGFRA D842V Km app -5.0 Z
# CAMK2D (CaMKII delta) Km app 9.3 Z DAPK2 n/a 2.9 L TEK (Tie2) Km app -0.1 Z PRKG2 (PKG2) Km app -5.1 Z
# PLK1 Km app 9.2 Z EPHA4 Km app 2.9 Z AURKA (Aurora A) Km app -0.1 Z TYRO3 (RSE) Km app -5.1 Z
# RET Y791F Km app 9.2 Z PIK3CG (p110 gamma) Km app 2.9 A KIT D816H n/a -0.2 L TAOK2 (TAO1) Km app -5.1 Z
# FLT3 Km app 9.1 Z HIPK1 (Myak) Km app 2.8 Z KIT N822K n/a -0.2 L EPHB4 Km app -5.3 Z
# MAPK10 (JNK3) 100 9.0 Z ADRBK2 (GRK3) Km app 2.8 Z PRKACG (PRKAC gamma) n/a -0.2 L AURKC (Aurora C) Km app -5.4 Z
# CSNK2A2 (CK2 alpha 2) Km app 8.7 Z STK17B (DRAK2) n/a 2.7 L TEK (TIE2) Y1108F n/a -0.3 L JAK1 Km app -5.7 Z […]
# T1 sequence (P50613 whole entry): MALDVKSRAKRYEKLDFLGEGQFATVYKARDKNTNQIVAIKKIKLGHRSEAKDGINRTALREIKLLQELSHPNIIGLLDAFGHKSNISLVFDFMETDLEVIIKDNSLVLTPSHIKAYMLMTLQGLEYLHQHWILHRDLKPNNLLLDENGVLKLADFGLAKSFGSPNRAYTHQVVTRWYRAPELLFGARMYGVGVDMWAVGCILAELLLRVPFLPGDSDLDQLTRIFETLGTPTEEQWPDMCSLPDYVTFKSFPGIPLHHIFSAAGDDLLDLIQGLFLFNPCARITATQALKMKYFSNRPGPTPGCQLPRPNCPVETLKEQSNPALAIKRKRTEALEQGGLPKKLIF
# T1 sequence (P51946 whole entry partner): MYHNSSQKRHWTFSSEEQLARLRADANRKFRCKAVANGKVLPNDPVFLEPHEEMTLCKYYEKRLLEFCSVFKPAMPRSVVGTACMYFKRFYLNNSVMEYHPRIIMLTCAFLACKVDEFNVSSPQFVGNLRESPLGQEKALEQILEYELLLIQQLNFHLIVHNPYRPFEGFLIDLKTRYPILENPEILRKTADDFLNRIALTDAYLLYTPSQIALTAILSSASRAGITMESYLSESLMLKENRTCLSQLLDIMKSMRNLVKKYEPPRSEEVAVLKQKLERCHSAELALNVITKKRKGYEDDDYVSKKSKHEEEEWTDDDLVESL
# T1 sequence (P51948 whole entry partner): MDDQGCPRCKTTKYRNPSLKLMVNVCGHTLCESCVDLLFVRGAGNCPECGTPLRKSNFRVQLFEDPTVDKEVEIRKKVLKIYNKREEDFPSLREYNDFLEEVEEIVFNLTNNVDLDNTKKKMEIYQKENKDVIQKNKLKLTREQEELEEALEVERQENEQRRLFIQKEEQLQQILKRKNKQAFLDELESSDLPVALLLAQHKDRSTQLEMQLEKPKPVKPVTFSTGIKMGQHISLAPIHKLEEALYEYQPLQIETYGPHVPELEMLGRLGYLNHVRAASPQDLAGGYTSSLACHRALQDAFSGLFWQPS
smiles,measurement,value
CN(C(=O)CN1CCOCC1)c1ccc2sc3c(-c4cccc5c(=O)cc(N6CC7CCC(C6)O7)oc45)cccc3c2c1 [NU5455],inhibition at 1 µM,5.3%

# Source: PMC6934184, “Selective DNA-PKcs inhibition extends the therapeutic index of localized radiotherapy and chemotherapy” (The Journal of Clinical Investigation, 2019)
